T1: human mSerRS (Homo sapiens, UniProt Q9NP81)
T1 construct: gene SARS2; aa 31-518, without N-terminal 30 residues; N-terminal GST tag (pGEX-6P1) cut by PreScission protease; expressed in E. coli BL21(DE3); homodimer
T1 sequence (Q9NP81 31-518): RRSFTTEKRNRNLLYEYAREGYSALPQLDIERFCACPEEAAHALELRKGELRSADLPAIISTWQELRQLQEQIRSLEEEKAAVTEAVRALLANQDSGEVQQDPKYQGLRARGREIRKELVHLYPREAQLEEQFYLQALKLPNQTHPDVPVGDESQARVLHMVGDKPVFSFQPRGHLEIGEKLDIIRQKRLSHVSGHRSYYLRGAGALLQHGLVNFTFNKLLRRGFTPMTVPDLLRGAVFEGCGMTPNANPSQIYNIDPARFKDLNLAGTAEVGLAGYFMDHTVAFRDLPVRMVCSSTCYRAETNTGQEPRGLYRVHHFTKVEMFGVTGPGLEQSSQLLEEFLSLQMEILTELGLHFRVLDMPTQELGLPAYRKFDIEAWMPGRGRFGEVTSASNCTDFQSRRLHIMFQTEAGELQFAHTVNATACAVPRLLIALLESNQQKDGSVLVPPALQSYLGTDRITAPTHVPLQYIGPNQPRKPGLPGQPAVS


Columns and labels:
human mSerRS = biological target: T1, human mSerRS; assay: cryo-EM structure, […] Å; format: binding; settings: complex with stabilized mtRNASer(UGA) transcript; both active sites of the dimer occupied; pH 7.0, 7.5 mM MgCl2
[1] = biological target: the molecule itself; assay: mass photometry; 25 nM mSerRS, 125 nM mtRNASer(UGA), 250 nM SerSA; 20 mM HEPES pH 7.0, 100 mM NaCl, 7.5 mM MgCl2, 1 mM DTT

Molecule	cryo-EM structure, 3.6 Å (human mSerRS)	stoichiometry N [1]
Nc1ncnc2c1ncn2[C@@H]1O[C@H](COS(=O)(=O)NC(=O)[C@@H](N)CO)[C@@H](O)[C@H]1O [SerSA, 5’-O-[N-(L-seryl)sulfamoyl] adenosine]	Both active sites are occupied by a SerSA ligand	
human mSerRS (mitochondrial seryl-tRNA synthetase) (enzyme, UniProt Q9NP81 31-518, looked up, also called mt-SerRS; not shown: GST, N-terminal, cleaved) RRSFTTEKRNRNLLYEYAREGYSALPQLDIERFCACPEEAAHALELRKGELRSADLPAIISTWQELRQLQEQIRSLEEEKAAVTEAVRALLANQDSGEVQQDPKYQGLRARGREIRKELVHLYPREAQLEEQFYLQALKLPNQTHPDVPVGDESQARVLHMVGDKPVFSFQPRGHLEIGEKLDIIRQKRLSHVSGHRSYYLRGAGALLQHGLVNFTFNKLLRRGFTPMTVPDLLRGAVFEGCGMTPNANPSQIYNIDPARFKDLNLAGTAEVGLAGYFMDHTVAFRDLPVRMVCSSTCYRAETNTGQEPRGLYRVHHFTKVEMFGVTGPGLEQSSQLLEEFLSLQMEILTELGLHFRVLDMPTQELGLPAYRKFDIEAWMPGRGRFGEVTSASNCTDFQSRRLHIMFQTEAGELQFAHTVNATACAVPRLLIALLESNQQKDGSVLVPPALQSYLGTDRITAPTHVPLQYIGPNQPRKPGLPGQPAVS		2

Reference: article PMC10412605 (Nature Communications, 2023)
